Measured values as given in patent publication US11617366B2, “Solvents for agricultural applications and pesticide formulations” (Dow Global Technologies LLC, priority 2017, dated 2023).
Read-outs that look alike come from different tables or passages of the source.

Experiment: Solubility of pesticide powders in solvents, 2% stepwise increments
Settings: for Dissolving power: compared with comparative solvents DMSO and DMAA810, for each of the active ingredients evaluated
Description: The solubility of various pesticides in these solvents or solvent components are evaluated.

[1] = solvent DEAC (N,N-diethyl acetamide), last concentration before powder not dissolved, 2% steps, no more than 2% lower than actual solubility
[2] = solvent DMAA810, last concentration before powder not dissolved, 2% steps, no more than 2% lower than actual solubility
[3] = solvent DMPA (N,N-dimethyl propanamide), last concentration before powder not dissolved, 2% steps, no more than 2% lower than actual solubility
[4] = solvent DMSO, last concentration before powder not dissolved, 2% steps, no more than 2% lower than actual solubility

Compound	Solubility in DEAC [weight %]	Solubility in DMAA810 [weight %]	Solubility in DMPA [weight %]	Solubility in DMSO [weight %]	Solubility in DEAC [1] [weight %]	Solubility in DMAA810 [2] [weight %]	Solubility in DMPA [3] [weight %]	Solubility in DMSO [4] [weight %]	Dissolving power
CC(C)N1C(=O)N(c2ccccc2)CS/C1=N\C(C)(C)C [Buprofezin]	31	22	33	1	–	–	–	–	–
CCCCC(C#N)(Cn1cncn1)c1ccc(Cl)cc1 (stereo not drawn) [Myclobutanil]	–	–	–	–	57	42	58	57	–
CCN(CC)C(C)=O [DEAC, N,N-diethyl acetamide]	–	–	–	–	–	–	–	–	stronger
CC(C)(C)C(=O)C(Oc1ccc(Cl)cc1)n1cncn1 (stereo not drawn) [Triazolone]	–	–	–	–	54	39	58	43	–
COC(=O)N(OC)c1ccccc1COc1ccn(-c2ccc(Cl)cc2)n1 [Pyraclostrobin]	–	–	–	–	54	42	63	40	–
Abamectin	–	–	–	–	50	38	51	21	–
Cc1c(COC(=O)[C@@H]2[C@H](/C=C(\Cl)C(F)(F)F)C2(C)C)cccc1-c1ccccc1 (racemic) [Bifenthrin]	–	–	–	–	50	33	47	7	–
CCC(=O)N(C)C [DMPA, N,N-dimethyl propanamide]	–	–	–	–	–	–	–	–	stronger
CC(C)(C)C(O)(CCc1ccc(Cl)cc1)Cn1cncn1 (stereo not drawn) [Tebuconazole]	51	–	54	–	–	37	–	32	–
